Laboratory results: patent publication US20230002359A1, “PESTICIDALLY ACTIVE FUSED BICYCLIC HETEROAROMATIC COMPOUNDS” (priority 2019, published 2023)

Assays:
Type in all cases: in vivo
[1] = tested on: Chilo suppressalis (Striped Rice Stemborer); test: Example B3: Chilo suppressalis (striped rice stemborer), artificial diet, L2 larvae; conditions: 144 h, application rate of 200 ppm, 6 days after infestation, L2 larvae, read-out: control in at least one of the three categories (mortality, anti-feedant effect, or growth inhibition)
Outline: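 Scoring covers mortality, anti-feedant effect and growth inhibition at 6 days post-infestation, relative to untreated diet, with activity defined as at least one category above untreated. Test solutions were aqueous, made from 10'000 ppm DMSO stocks, and applied to artificial diet before drying and infestation with L2 larvae.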

[2] = tested on: Diabrotica Balteata (Corn Root Worm); test: Example B1: Diabrotica balteata (corn root worm), maize sprouts sprayed, L2 larvae; conditions: 96 h, application rate of 200 ppm, 4 days after infestation, L2 larvae, read-out: control in at least one of the two categories (mortality or growth inhibition)
Outline: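 Read-out is mortality plus growth inhibition relative to untreated controls, assessed 4 days after infestation. Sprouts resting on agar are sprayed with aqueous solutions derived from 10′000 ppm DMSO stocks and left to dry before L2 larvae (6 to 10 per well) are added.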

[3] = tested on: Spodoptera littoralis (Egyptian Cotton Leaf Worm); test: Example B7: Spodoptera littoralis (Egyptian cotton leaf worm), cotton leaf discs sprayed, L1 larvae; conditions: foliar, 72 h, application rate of 200 ppm, 3 days after infestation, L1 larvae, read-out: control in at least one of the three categories (mortality, anti-feedant effect, or growth inhibition)
Outline: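 Five L1 larvae per sprayed, dried cotton leaf disc on agar. Activity is counted when mortality, anti-feedant effect or growth inhibition exceeds the untreated sample at day 3.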

[4] = tested on: Plutella xylostella (Diamond Back Moth); test: Example B4: Plutella xylostella (diamond back moth), artificial diet, eggs, 24-well; conditions: 192 h, application rate of 200 ppm, 8 days after infestation, eggs, read-out: control in at least one of the two categories (mortality or growth inhibition)
Method: 24-well microtiter plates with artificial diet were treated with aqueous test solutions prepared from 10′000 ppm DMSO stock solutions by pipetting. After drying, Plutella eggs were pipetted through a plastic stencil onto a gel blotting paper and the plate was closed with it. The samples were assessed for mortality and growth inhibition in comparison to untreated samples 8 days after infestation.

C[C@@H](c1ncnn1-c1ccc(C#N)cn1)N(C)c1ccnc2c(C(F)(F)F)cc(Br)cc12 [P.206, 6-[5-[(1S)-1-[[6-bromo-8-(trifluoromethyl)-4-quinolyl]-methyl-amino]ethyl]-1,2,4-triazol-1-yl]pyridine-3-carbonitrile]
≥ 80%: percent control (mortality, anti-feedant effect or growth inhibition) at 200 ppm [1] | percent control (mortality or growth inhibition) at 200 ppm [2] | percent control (mortality, anti-feedant effect or growth inhibition) at 200 ppm [3] | percent control (mortality or growth inhibition) at 200 ppm [4]

CC(Nc1ncnc2c(Br)cc(OC(F)(F)F)cc12)c1nccnc1-n1nccn1 (centres unmarked) [P.13, 8-bromo-N-[1-[3-(triazol-2-yl)pyrazin-2-yl]ethyl]-6-(trifluoromethoxy)quina-zolin-4-amine]
≥ 80%: percent control (mortality, anti-feedant effect or growth inhibition) at 200 ppm [1] | percent control (mortality or growth inhibition) at 200 ppm [2] | percent control (mortality, anti-feedant effect or growth inhibition) at 200 ppm [3] | percent control (mortality or growth inhibition) at 200 ppm [4]

CC(Nc1ncnc2c(Br)cc(C(F)(F)F)cc12)c1nccnc1-c1ccc(C#N)cn1 (centres unmarked) [P.117, 6-[3-[1-[[8-bromo-6-(trifluoromethyl)quinazolin-4-yl]amino]ethyl]pyrazin-2-yl]pyridine-3-carbonitrile]
≥ 80%: percent control (mortality, anti-feedant effect or growth inhibition) at 200 ppm [1] | percent control (mortality or growth inhibition) at 200 ppm [2] | percent control (mortality, anti-feedant effect or growth inhibition) at 200 ppm [3] | percent control (mortality or growth inhibition) at 200 ppm [4]

CC(c1ncnn1-c1ccc(C#N)cn1)N(C)c1ncnc2c(Br)cc(Br)cc12 (centres unmarked) [P.257, 6-[5-[1-[(6,8-dibromoquinazolin-4-yl)-methyl-amino]ethyl]-1,2,4-triazol-1-yl]pyridin-3-carbonitrile]
≥ 80%: percent control (mortality, anti-feedant effect or growth inhibition) at 200 ppm [1] | percent control (mortality or growth inhibition) at 200 ppm [2] | percent control (mortality, anti-feedant effect or growth inhibition) at 200 ppm [3] | percent control (mortality or growth inhibition) at 200 ppm [4]

CC(Nc1ncnc2c(C(F)(F)F)cc(Cl)cc12)c1nccnc1-n1nccn1 (centres unmarked) [P.39, 6-chloro-N-[1-[3-(triazol-2-yl)pyrazin-2-yl]ethyl]-8-(trifluoromethyl)quinazolin-4-amine]
≥ 80%: percent control (mortality, anti-feedant effect or growth inhibition) at 200 ppm [1] | percent control (mortality or growth inhibition) at 200 ppm [2] | percent control (mortality, anti-feedant effect or growth inhibition) at 200 ppm [3] | percent control (mortality or growth inhibition) at 200 ppm [4]

CC(c1ncnn1-c1ccc(F)cn1)N(C)c1ncnc2c(Cl)cc(C(F)(F)F)cc12 (centres unmarked) [P.232, 8-chloro-N-[1-[2-(5-fluoro-2-pyridyl)-1,2,4-triazol-3-yl]ethyl]-N-methyl-6-(trifluoromethyl)quinazolin-4-amine]
≥ 80%: percent control (mortality, anti-feedant effect or growth inhibition) at 200 ppm [1] | percent control (mortality or growth inhibition) at 200 ppm [2] | percent control (mortality, anti-feedant effect or growth inhibition) at 200 ppm [3] | percent control (mortality or growth inhibition) at 200 ppm [4]

CC(Nc1ncnc2c(C(F)(F)F)cc(C(F)(F)F)cc12)c1nccnc1-c1ccc(C#N)cn1 (centres unmarked) [P.115, 6-[3-[1-[[6,8-bis(trifluoromethyl)quina-zolin-4-yl]amino]ethyl]pyrazin-2-yl]pyridine-3-carbonitrile]
≥ 80%: percent control (mortality, anti-feedant effect or growth inhibition) at 200 ppm [1] | percent control (mortality or growth inhibition) at 200 ppm [2] | percent control (mortality, anti-feedant effect or growth inhibition) at 200 ppm [3] | percent control (mortality or growth inhibition) at 200 ppm [4]

CC(c1nccnc1-n1nccn1)N(C)c1ncnc2c(Br)cc(Cl)cc12 (centres unmarked) [P.174, 8-bromo-6-chloro-N-methyl-N-[1-[3-(triazol-2-yl)pyrazin-2-yl]ethyl]quinazolin-4-amine]
≥ 80%: percent control (mortality, anti-feedant effect or growth inhibition) at 200 ppm [1] | percent control (mortality or growth inhibition) at 200 ppm [2] | percent control (mortality, anti-feedant effect or growth inhibition) at 200 ppm [3] | percent control (mortality or growth inhibition) at 200 ppm [4]

CC(c1nccnc1-c1ccc(OC(F)F)cn1)N(C)c1ncnc2c(Cl)cc(C(F)(F)F)cc12 (centres unmarked) [P.112, 8-chloro-N-[1-[3-[5-(difluroomethoxy)-2-pyridyl]pyrazin-2-yl]ethyl]-N-methyl-6-(trifluoromethyl)quinazolin-4-amine]
≥ 80%: percent control (mortality, anti-feedant effect or growth inhibition) at 200 ppm [1] | percent control (mortality or growth inhibition) at 200 ppm [2] | percent control (mortality, anti-feedant effect or growth inhibition) at 200 ppm [3] | percent control (mortality or growth inhibition) at 200 ppm [4]

CC(c1ncnn1-c1ccc(F)cn1)N(C)c1ncnc2c(Br)cc(C(F)(F)F)cc12 (centres unmarked) [P.185, 8-bromo-N-[1-[2-(5-fluoro-2-pyridyl)-1,2,4-triazol-3-yl]ethyl]-N-methyl-6-(trifluoromethyl)quinazolin-4-amine]
≥ 80%: percent control (mortality, anti-feedant effect or growth inhibition) at 200 ppm [1] | percent control (mortality or growth inhibition) at 200 ppm [2] | percent control (mortality, anti-feedant effect or growth inhibition) at 200 ppm [3] | percent control (mortality or growth inhibition) at 200 ppm [4]

CC(c1nc(Br)nn1-c1ncccn1)N(C)c1ncnc2c(Cl)cc(C(F)(F)F)cc12 (centres unmarked) [P.207, N-[1-(5-bromo-2-pyrimidin-2-yl-1,2,4-triazol-3-yl)ethyl]-8-chloro-N-methyl-6-(trifluoromethyl)quinazolin-4-amine]
≥ 80%: percent control (mortality, anti-feedant effect or growth inhibition) at 200 ppm [1] | percent control (mortality or growth inhibition) at 200 ppm [2] | percent control (mortality, anti-feedant effect or growth inhibition) at 200 ppm [3] | percent control (mortality or growth inhibition) at 200 ppm [4]

CC(Nc1ncnc2c(Cl)cc(Br)cc12)c1ncnn1-c1ncccn1 (centres unmarked) [P.159, 6-bromo-8-chloro-N-[1-(2-pyrimidin-2-yl-1,2,4-triazol-3-yl)ethyl]quinazolin-4-amine]
≥ 80%: percent control (mortality, anti-feedant effect or growth inhibition) at 200 ppm [1] | percent control (mortality or growth inhibition) at 200 ppm [2] | percent control (mortality, anti-feedant effect or growth inhibition) at 200 ppm [3] | percent control (mortality or growth inhibition) at 200 ppm [4]

CC(c1nccnc1-c1ccc(C#N)cn1)N(C)c1ncnc2c(Cl)cc(C(F)(F)F)cc12 (centres unmarked) [P.122]
≥ 80%: percent control (mortality, anti-feedant effect or growth inhibition) at 200 ppm [1] | percent control (mortality or growth inhibition) at 200 ppm [2] | percent control (mortality, anti-feedant effect or growth inhibition) at 200 ppm [3] | percent control (mortality or growth inhibition) at 200 ppm [4]

CC(c1nccnc1-c1ncccn1)N(CC1CC1)c1ncnc2c(C(F)(F)F)cc(C(F)(F)F)cc12 (centres unmarked) [P.108, N-(cyclopropylmethyl)-N-[1-(3-pyrimidin-2-ylpyrazin-2-yl)ethyl]-6,8-bis(trifluoromethyl)quina-zolin-4-amine]
≥ 80%: percent control (mortality, anti-feedant effect or growth inhibition) at 200 ppm [1] | percent control (mortality or growth inhibition) at 200 ppm [2] | percent control (mortality, anti-feedant effect or growth inhibition) at 200 ppm [3] | percent control (mortality or growth inhibition) at 200 ppm [4]

CC(c1ncnn1-c1ccc(C#N)cn1)N(C)c1c(C#N)cnc2c(C(F)(F)F)cc(C(F)(F)F)cc12 (centres unmarked) [P.224, 4-[1-[2-(5-cyano-2-pyridyl)-1,2,4-tirazol-3-yl]ethyl-methyl-amino]-6,8-bis(trifluoromethy)quino-line-3-carbonitrile]
≥ 80%: percent control (mortality, anti-feedant effect or growth inhibition) at 200 ppm [1] | percent control (mortality or growth inhibition) at 200 ppm [2] | percent control (mortality, anti-feedant effect or growth inhibition) at 200 ppm [3] | percent control (mortality or growth inhibition) at 200 ppm [4]

C[C@H](Nc1ccnc2c(C(F)(F)F)cc(Br)cc12)c1ncnn1-c1ncccn1 [P.253, 6-bromo-N-[(1S)-1-(2-pyrimidin-2-yl-1,2,4-triazol-3-yl)ethyl]-8-(trifluoromethyl)quinolin-4-amine]
≥ 80%: percent control (mortality, anti-feedant effect or growth inhibition) at 200 ppm [1] | percent control (mortality or growth inhibition) at 200 ppm [2] | percent control (mortality, anti-feedant effect or growth inhibition) at 200 ppm [3] | percent control (mortality or growth inhibition) at 200 ppm [4]

CC(Nc1ncnc2c(Br)cc(Br)cc12)c1nccnc1-c1ncccn1 (centres unmarked) [P.38, 6,8-dibromo-N-[1-(3-pyrimidin-2-ylpyrazin-2-yl)ethyl]quinazolin-4-amine]
≥ 80%: percent control (mortality, anti-feedant effect or growth inhibition) at 200 ppm [1] | percent control (mortality or growth inhibition) at 200 ppm [2] | percent control (mortality, anti-feedant effect or growth inhibition) at 200 ppm [3] | percent control (mortality or growth inhibition) at 200 ppm [4]
